Read-outs that look alike come from different tables or passages of the source. Where a SMILES comes first, the peptide text is derived from it. Bridges are numbered along the chain shown (N, C = ends). [ ]: non-standard residue; d: D form. The star is where a group is joined. hPhe(3-Cl-4-CF3) = N[C@@H](CCc1ccc(C(F)(F)F)c(Cl)c1)C(=O)O; NPrPhe(4-CF3) = CCCN[C@@H](Cc1ccc(C(F)(F)F)cc1)C(=O)O; NMeGly(cPent) = CN[C@H](C(=O)O)C1CCCC1; Pro(4S-Me) = C[C@@H]1CN[C@H](C(=O)O)C1; Aze(3S-Me) = C[C@H]1CN[C@@H]1C(=O)O; NMeD = CN[C@@H](CC(=O)O)C(=O)O; NMeL = CN[C@@H](CC(C)C)C(=O)O; Morpholide = C1CN(*)CCO1; Piperidide = C1CCN(*)CC1; Ac5c = NC1(C(=O)O)CCCC1; Aze = O=C(O)[C@@H]1CCN1; Sar = CNCC(=O)O
Tests used:
[1] = system: human lung cancer strain NCI-H441;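 also: cell proliferation inhibition after four days measured by CellTiter-Glo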
[2] = target: GDP-bound NRAS wild-type protein (Homo sapiens, UniProt P01111); experiment: Binding to NRAS by surface plasmon resonance (SPR), Single Cycle Kinetics; details: SPR, GDP-bound NRAS wild-type protein vs GDP-bound KRAS wild-type protein
Chain of GDP-bound NRAS wild-type protein (P01111 whole entry): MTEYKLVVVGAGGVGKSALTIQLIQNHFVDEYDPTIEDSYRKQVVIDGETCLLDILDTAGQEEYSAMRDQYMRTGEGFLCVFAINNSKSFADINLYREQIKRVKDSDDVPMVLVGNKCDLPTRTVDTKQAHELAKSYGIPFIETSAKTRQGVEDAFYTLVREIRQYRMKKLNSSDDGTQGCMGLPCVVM

[3] = target: GDP-bound HRAS wild-type protein (Homo sapiens, UniProt P01112); experiment: Binding to HRAS by surface plasmon resonance (SPR), Single Cycle Kinetics; details: SPR, GDP-bound HRAS wild-type protein vs GDP-bound KRAS wild-type protein
Chain of GDP-bound HRAS wild-type protein (P01112 whole entry): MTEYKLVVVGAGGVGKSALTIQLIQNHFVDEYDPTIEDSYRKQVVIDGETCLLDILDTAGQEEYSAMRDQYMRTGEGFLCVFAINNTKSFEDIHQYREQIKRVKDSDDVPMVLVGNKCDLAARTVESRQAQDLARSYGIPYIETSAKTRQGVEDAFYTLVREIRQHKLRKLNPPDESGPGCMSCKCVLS

IC50 [1] | IC50 ([1]; read-out: NCI-H441 IC50, NCI-H441 cell proliferation, 4 days, CellTiter-Glo) | Structure (SMILES) | NRAS/KRAS (ratio of KD value for NRAS to KD value for KRAS) [2] | HRAS/KRAS (ratio of KD value for HRAS to KD value for KRAS) [3] | NRAS/KRAS (ratio of KD value with respect to NRAS to KD value with respect to KRAS) [2] | HRAS/KRAS (ratio of KD value with respect to HRAS to KD value with respect to KRAS) [3] | IC50 ([1]; read-out: NCI-H441 IC50, NCI-H441 cells, four days, CellTiter-Glo)
156 nM | – | CC[C@H](C)[C@@H]1NC(=O)[C@H](CC)N(C)C(=O)C[C@@H](C(=O)N2CCOCC2)N(C)C(=O)[C@H](C2CCCC2)N(C)C(=O)C2(CCCC2)NC(=O)[C@@H]2CCCN2C(=O)[C@H](CCc2ccc(C(F)(F)F)c(Cl)c2)NC(=O)CN(C)C(=O)[C@H](Cc2ccc(F)cc2)N2CCCCC[C@@H](C2=O)N(C)C(=O)CN(C)C1=O [PP0959] | B (a compound having 3 or more and less than 10 is denoted as B) | B (a compound having 3 or more and less than 10 is denoted as B) | – | – | –
21.8 nM | – | CC[C@H](C)[C@@H]1NC(=O)[C@H](CC(C)C)N(C)C(=O)C[C@@H](C(=O)N2CCOCC2)N(C)C(=O)[C@H](C2CCCC2)N(C)C(=O)C2(CCCC2)NC(=O)[C@@H]2CCCN2C(=O)[C@H](CCc2ccc(C(F)(F)F)c(Cl)c2)NC(=O)CN(C)C(=O)[C@H](Cc2ccccc2)N2CC=CC[C@@H](C2=O)N(C)C(=O)CN(C)C1=O [PP0528] | – | – | C (A compound having a KD ratio of 0.1 or more and less than 3 is denoted as C) | C (A compound having a KD ratio of 0.1 or more and less than 3 is denoted as C) | –
11.3 nM | – | CCCN1C(=O)CN(C)C(=O)[C@@H]2[C@@H](C)CN2C(=O)[C@H]([C@@H](C)CC)NC(=O)[C@H](CC(C)C)N(C)C(=O)C[C@@H](C(=O)N2CCOCC2)N(C)C(=O)[C@H](C2CCCC2)N(C)C(=O)C2(CCCC2)NC(=O)[C@@H]2CCCN2C(=O)[C@H](CCc2ccc(C(F)(F)F)c(Cl)c2)NC(=O)CN(C)C(=O)[C@@H]1Cc1ccc(C(F)(F)F)cc1 [PP0258] ([NMeL]I[Aze(3S-Me)][Sar][NPrPhe(4-CF3)][Sar][hPhe(3-Cl-4-CF3)]P[Ac5c][NMeGly(cPent)][NMeD]-Morpholide; lactam N-11) | B (a compound having 3 or more and less than 10 is denoted as B) | C (A compound having a KD ratio of 0.1 or more and less than 3 is denoted as C) | – | – | –
40.5 nM | – | CCO[C@@H]1C[C@H]2C(=O)NC3(CCC3)C(=O)N(C)[C@@H](C3CCCC3)C(=O)N(C)[C@H](C(=O)N(C)C)CC(=O)N(C)[C@@H](CC)C(=O)N[C@@H]([C@@H](C)CC)C(=O)N(C)CC(=O)N(C)[C@H]3CCCCCN(C3=O)[C@@H](Cc3ccc(F)c(C)c3)C(=O)N(C)CC(=O)N[C@@H](CCc3cc(F)c(C(F)(F)F)c(F)c3)C(=O)N2C1 [PP0912] | B (a compound having 3 or more and less than 10 is denoted as B) | B (a compound having 3 or more and less than 10 is denoted as B) | – | – | –
20.3 nM | – | CCCN1C(=O)CN(C)C(=O)[C@@H]2CCN2C(=O)[C@H]([C@@H](C)CC)NC(=O)[C@H](CC(C)C)N(C)C(=O)C[C@@H](C(=O)N2CCOCC2)N(C)C(=O)[C@H](C2CCCC2)N(C)C(=O)C2(CCCC2)NC(=O)[C@@H]2C[C@H](C)CN2C(=O)[C@H](CCc2ccc(C(F)(F)F)c(Cl)c2)NC(=O)CN(C)C(=O)[C@@H]1Cc1ccc(C(F)(F)F)cc1 [PP0453] ([NMeL]I[Aze][Sar][NPrPhe(4-CF3)][Sar][hPhe(3-Cl-4-CF3)][Pro(4S-Me)][Ac5c][NMeGly(cPent)][NMeD]-Morpholide; lactam N-11) | – | – | B (a compound having 3 or more and less than 10 is denoted as B) | C (A compound having a KD ratio of 0.1 or more and less than 3 is denoted as C) | –
20.3 nM | – | CCO[C@@H]1C[C@H]2C(=O)NC3(CCC3)C(=O)N(C)[C@@H](C3CCCC3)C(=O)N(C)[C@H](C(=O)N(C)C)CC(=O)N(C)[C@@H](CC(C)(C)C)C(=O)N[C@@H]([C@@H](C)CC)C(=O)N(C)CC(=O)N(C)[C@H]3CCCCCN(C3=O)[C@@H](Cc3ccc(C(F)(F)F)cc3)C(=O)N(C)CC(=O)N[C@@H](CCc3cc(F)c(C(F)(F)F)c(F)c3)C(=O)N2C1 [PP0669] | – | – | B (a compound having 3 or more and less than 10 is denoted as B) | B (a compound having 3 or more and less than 10 is denoted as B) | –
– | – | CCCN1C(=O)CN(C)C(=O)CN(C)C(=O)[C@H]([C@@H](C)CC)NC(=O)[C@H](CC(C)C)N(C)C(=O)C[C@@H](C(=O)N2CCCCC2)N(C)C(=O)[C@H](C2CCCC2)N(C)C(=O)C2(CCCC2)NC(=O)[C@@H]2CCCN2C(=O)[C@H](CCc2ccc(C(F)(F)F)c(Cl)c2)NC(=O)CN(C)C(=O)[C@@H]1Cc1ccc(C(F)(F)F)cc1 [PP0171] ([NMeL]I[Sar][Sar][NPrPhe(4-CF3)][Sar][hPhe(3-Cl-4-CF3)]P[Ac5c][NMeGly(cPent)][NMeD]-Piperidide; lactam N-11) | – | – | – | – | 6.9 nM
– | 17.6 nM | CCO[C@@H]1C[C@H]2C(=O)NC3(CCC3)C(=O)N(C)[C@@H](C3CCCC3)C(=O)N(C)[C@H](CC)CC(=O)N(C)[C@@H](CC3CC3)C(=O)N[C@@H]([C@@H](C)CC)C(=O)N(C)CC(=O)N(C)[C@H]3C/C=C\CCN(C3=O)C(Cc3ccc(C(F)(F)F)cc3)C(=O)N(C)CC(=O)N[C@@H](CCc3cc(F)c(C(F)(F)F)c(F)c3)C(=O)N2C1 (some centres unmarked) [PP1631] | – | – | – | – | –

From patent US20240158446A1, “CYCLIC COMPOUND HAVING SELECTIVE INHIBITORY ACTION ON KRAS OVER HRAS AND NRAS” (CHUGAI SEIYAKU KABUSHIKI KAISHA, priority 2021, published 2024)
